Source: the supplement of paper PMC10307832

What was measured:
Test in all cases: relative viability (nuclei count vs DMSO), 5 days (fraction); higher = more cells survive
[1] = tested on: NCI-H2085
Outline: (§1)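 Each reported value is a median over duplicate plates. It expresses relative viability: treated-well nuclei count divided by vehicle-well nuclei count. Lung cancer cell lines in 1536-well plates were dosed by pin tool a day after seeding, alone with one drug or with a fixed anchor-drug dose plus five library-drug doses (not always all listed) in √10 steps, and nuclei were counted after 5 days.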

[2] = tested on: H3255
Outline: as §1

[3] = tested on: NCI-H2087
Outline: as §1

[4] = tested on: NCI-H1651
Outline: as §1

[5] = tested on: NCI-H1355
Outline: as §1

[6] = tested on: SK-MES-1
Outline: as §1

[7] = tested on: NCI-H2405
Outline: as §1

[8] = tested on: EMC-BAC-2
Outline: as §1

[9] = tested on: NCI-H322M
Outline: as §1

[10] = tested on: UMC-11
Outline: as §1

[11] = tested on: NCI-H2023
Outline: as §1

[12] = tested on: NCI-H1395
Outline: as §1

[13] = tested on: NCI-H1944
Outline: as §1

[14] = tested on: EPLC-272H
Outline: as §1

[15] = tested on: LCLC-97TM1
Outline: as §1

[16] = tested on: NCI-H1793
Outline: as §1

[17] = tested on: ChaGo-K-1
Outline: as §1

[18] = tested on: NCI-H520
Outline: as §1

[19] = tested on: HCC-827
Outline: as §1

[20] = tested on: HCC-44
Outline: as §1

`NC(=O)Nc1cc(-c2cccc(F)c2)sc1C(=O)N[C@H]1CCCNC1` [AZD7762] + CC1(C)CCC(c2ccc(Cl)cc2)=C(CN2CCN(c3ccc(C(=O)NS(=O)(=O)c4ccc(N[C@H](CCN5CCOCC5)CSc5ccccc5)c(S(=O)(=O)C(F)(F)F)c4)cc3)CC2)C1 [Navitoclax] (partner 0.5 µM) showed a relative viability ([1]; first compound 0.01 µM) of 1.27, a relative viability ([1]; first compound 0.03162 µM) of 1.11 and a relative viability ([1]; first compound 0.1 µM) of 1.24. The relative viability ([1]; first compound 0.3162 µM) was 1.25, the relative viability ([1]; first compound 1 µM) was 1.03 and the relative viability ([2]; first compound 0.01 µM) was 0.51. For the same molecule, the relative viability ([2]; first compound 0.03162 µM) was 0.509, the relative viability ([2]; first compound 0.1 µM) was 0.526 and the relative viability ([2]; first compound 0.3162 µM) was 0.524. It also gave a relative viability ([2]; first compound 1 µM) of 0.448, a relative viability ([3]; first compound 0.01 µM) of 1.13 and a relative viability ([3]; first compound 0.03162 µM) of 1. For the same molecule, the relative viability ([3]; first compound 0.1 µM) was 1.27, the relative viability ([3]; first compound 0.3162 µM) was 1.17 and the relative viability ([3]; first compound 1 µM) was 1.28. The relative viability ([4]; first compound 0.01 µM) was 1.16, the relative viability ([4]; first compound 0.03162 µM) was 0.964 and the relative viability ([4]; first compound 0.1 µM) was 0.922. For the same molecule, the relative viability ([4]; first compound 0.3162 µM) was 0.855, the relative viability ([4]; first compound 1 µM) was 0.283 and the relative viability ([5]; first compound 0.01 µM) was 0.879. It also gave a relative viability ([5]; first compound 0.03162 µM) of 1.07, a relative viability ([5]; first compound 0.1 µM) of 0.946 and a relative viability ([5]; first compound 0.3162 µM) of 1.01. The relative viability ([5]; first compound 1 µM) was 0.914, the relative viability ([6]; first compound 0.01 µM) was 1.24 and the relative viability ([6]; first compound 0.03162 µM) was 1.38. For the same molecule, the relative viability ([6]; first compound 0.1 µM) was 1.41, the relative viability ([6]; first compound 0.3162 µM) was 1.28 and the relative viability ([6]; first compound 1 µM) was 0.645. For the same molecule, the relative viability ([7]; first compound 0.01 µM) was 0.812, the relative viability ([7]; first compound 0.03162 µM) was 0.925 and the relative viability ([7]; first compound 0.1 µM) was 0.873. For the same molecule, the relative viability ([7]; first compound 0.3162 µM) was 0.675, the relative viability ([7]; first compound 1 µM) was 0.244 and the relative viability ([8]; first compound 0.01 µM) was 1.22. It also gave a relative viability ([8]; first compound 0.03162 µM) of 1.11, a relative viability ([8]; first compound 0.1 µM) of 1.16 and a relative viability ([8]; first compound 0.3162 µM) of 1.18. It also gave a relative viability ([8]; first compound 1 µM) of 1.18, a relative viability ([9]; first compound 0.01 µM) of 1.14 and a relative viability ([9]; first compound 0.03162 µM) of 1.33. For the same molecule, the relative viability ([9]; first compound 0.1 µM) was 1.29, the relative viability ([9]; first compound 0.3162 µM) was 1.22 and the relative viability ([9]; first compound 1 µM) was 1.03. It also gave a relative viability ([10]; first compound 0.01 µM) of 0.312, a relative viability ([10]; first compound 0.03162 µM) of 0.32 and a relative viability ([10]; first compound 0.1 µM) of 0.272. It also gave a relative viability ([10]; first compound 0.3162 µM) of 0.307, a relative viability ([10]; first compound 1 µM) of 0.21 and a relative viability ([11]; first compound 0.01 µM) of 0.992. The relative viability ([11]; first compound 0.03162 µM) was 0.771, the relative viability ([11]; first compound 0.1 µM) was 0.663 and the relative viability ([11]; first compound 0.3162 µM) was 0.287. It also gave a relative viability ([11]; first compound 1 µM) of 0.118, a relative viability ([12]; first compound 0.01 µM) of 1.27 and a relative viability ([12]; first compound 0.03162 µM) of 1.66. The relative viability ([12]; first compound 0.1 µM) was 1.41, the relative viability ([12]; first compound 0.3162 µM) was 0.634 and the relative viability ([12]; first compound 1 µM) was 0.408. It also gave a relative viability ([13]; first compound 0.01 µM) of 1.06, a relative viability ([13]; first compound 0.03162 µM) of 1.14 and a relative viability ([13]; first compound 0.1 µM) of 1.1. The relative viability ([13]; first compound 0.3162 µM) was 1.12, the relative viability ([13]; first compound 1 µM) was 0.816 and the relative viability ([14]; first compound 0.01 µM) was 1.17. For the same molecule, the relative viability ([14]; first compound 0.03162 µM) was 1.18, the relative viability ([14]; first compound 0.1 µM) was 1.15 and the relative viability ([14]; first compound 0.3162 µM) was 1.37. For the same molecule, the relative viability ([14]; first compound 1 µM) was 0.783, the relative viability ([15]; first compound 0.01 µM) was 0.343 and the relative viability ([15]; first compound 0.03162 µM) was 0.517. The relative viability ([15]; first compound 0.1 µM) was 0.51, the relative viability ([15]; first compound 0.3162 µM) was 0.457 and the relative viability ([15]; first compound 1 µM) was 0.237. For the same molecule, the relative viability ([16]; first compound 0.01 µM) was 0.437, the relative viability ([16]; first compound 0.03162 µM) was 0.645 and the relative viability ([16]; first compound 0.1 µM) was 0.476. It also gave a relative viability ([16]; first compound 0.3162 µM) of 0.368, a relative viability ([16]; first compound 1 µM) of 0.211 and a relative viability ([17]; first compound 0.01 µM) of 0.934. The relative viability ([17]; first compound 0.03162 µM) was 1, the relative viability ([17]; first compound 0.1 µM) was 0.913 and the relative viability ([17]; first compound 0.3162 µM) was 0.813. It also gave a relative viability ([17]; first compound 1 µM) of 0.664, a relative viability ([18]; first compound 0.01 µM) of 1.11 and a relative viability ([18]; first compound 0.03162 µM) of 1.13. For the same molecule, the relative viability ([18]; first compound 0.1 µM) was 1.07, the relative viability ([18]; first compound 0.3162 µM) was 0.595 and the relative viability ([18]; first compound 1 µM) was 0.45. It also gave a relative viability ([19]; first compound 0.01 µM) of 1, a relative viability ([19]; first compound 0.03162 µM) of 0.918 and a relative viability ([19]; first compound 0.1 µM) of 0.991. For the same molecule, the relative viability ([19]; first compound 0.3162 µM) was 0.94, the relative viability ([19]; first compound 1 µM) was 0.93 and the relative viability ([20]; first compound 0.01 µM) was 1.1. For the same molecule, the relative viability ([20]; first compound 0.03162 µM) was 0.933, the relative viability ([20]; first compound 0.1 µM) was 1.01 and the relative viability ([20]; first compound 0.3162 µM) was 0.901. It also gave a relative viability ([20]; first compound 1 µM) of 1.01.
